Results on two compounds are retold here after patent US20220054541A1, “METHOD FOR TREATING INFLAMMATORY BOWEL DISEASES” (NovMetaPharma Co., Ltd., priority 2020, published 2022).

Structures are written as SMILES. “Also recorded” adds a separate entry of the source.

Data set [1] relates to DSS-induced colitis model mice. Description: DSS-induced colitis model mice (body weight, disease score, survival, colon length, histology). The class given is in vivo, Male C57BL/6J Jms Slc mice. Here is the method:
Male C57BL/6J Jms Slc mice (8-week old) were fed with 4% dextran sulfate sodium (DSS) in water in place of drinking water for 9 days, followed by feeding drinking water for 3 days, inducing colitis in the mice. Mice were divided into three groups: (1) CRP40 group administered orally with CHP monohydrate (40 mg/kg body weight/day); (2) CycloZ40 group administered orally with a combination of CHP monohydrate 40 mg/kg+Zn gluconate 70 mg/kg; and (3) vehicle (control) group fed with drinking water. CHP hydrate and combination of CHP hydrate+Zn gluconate were administered to the animals starting from 3 days prior to the DSS administration and continued for 12 days until the animals were sacrificed. The above amount of the CHP monohydrate and the combination of CHP monohydrate and Zn gluconate were administered daily.
At day 12, the animals were sacrificed and their colon lengths were measured.
The intestinal tissues were fixed, paraffin-embedded, and stained with hematoxylin and eosin.
Histopathological evaluation of colon was scored according to the grading system listed below.

Data set [2] relates to muscle tissues and intestinal segments. To be noted: cited from earlier work.
Data set [3] is described as follows: pKa of CHP hydrate material. The class given is physicochemical.

As for `O=C1N[C@@H](Cc2cnc[nH]2)C(=O)N2CCC[C@@H]12` [CHP, Cyclo(-His-Pro)], the protection of intestine result in data set [1] (CHP alone 40 mg/kg/day as monohydrate compared with combination of CHP 40 mg/kg/day and Zn 70 mg/kg as zinc gluconate) is reported as “greater protection of intestine”. Also, in data set [2], the “zinc absorption and uptake” value is “enhanced zinc absorption and uptake”.

Consider `O=C1N[C@@H](Cc2cnc[nH]2)C(=O)N2CCC[C@@H]12` [CRP40, CHP monohydrate], for which, in data set [1] (DSS-induced colitis mice, compared with control (vehicle) group), the histological scores entry is “histologically more resistant to intestinal inflammation”. Moreover, the “histological examination of intestinal tissue (H&E)” value in data set [1] (DSS-induced colitis mice, epithelial lining, submucosa thickness, lymphatic infiltration, compared with vehicle group) is given as “protected from intestinal tissue damage”. In addition, the survival rate result in data set [1] (DSS-induced colitis mice, experimental period of 14 days, CHP monohydrate 40 mg/kg/day, or plus Zn gluconate 70 mg/kg, about 70% of vehicle group died) is given as “survived until the end of the experiment”. Besides, the “weight loss (body weight changes)” value in data set [1] (DSS-induced colitis mice, oral daily CHP monohydrate 40 mg/kg/day, day 12, compared with CycloZ40 and vehicle groups) is given as “the least”. In data set [1] (DSS-induced colitis mice, oral daily CHP monohydrate 40 mg/kg/day, day 12, compared with CycloZ40 and vehicle groups, monohydrate), the “disease score (disease activity: weight loss, stool consistency, blood)” value was “greatly improved; also recorded: the lowest”. Moreover, the colon length entry in data set [1] (DSS-induced colitis mice, sacrificed at day 12, compared with vehicle and CycloZ40 groups) is recorded as “longest”. The compound also came in with a pKa in data set [3] of roughly 6.4.

For orientation: pKa means the pH at which an ionisable group is half protonated. Higher therefore signals a group that holds its proton tightly.
